Results taken from article PMC12469269, “Investigating SMR Peptide Interactions with Breast Cancer-Associated Proteins” (International Journal of Molecular Sciences, 2025).
Entries after “also recorded” stand apart in the source; their conditions may differ.

What was measured:
[1] = target: T1, Recombinant Human GRP75/HSPA9B/Mortalin His Protein (Homo sapiens, UniProt P38646); test: biochemical; type: binding; conditions: SPR, 25 °C, HBS-P pH 7.4
T1 construct: His; purchased Novus Biologicals, LLC/R&D Systems NBC1-18380
T1 sequence (P38646 47-679): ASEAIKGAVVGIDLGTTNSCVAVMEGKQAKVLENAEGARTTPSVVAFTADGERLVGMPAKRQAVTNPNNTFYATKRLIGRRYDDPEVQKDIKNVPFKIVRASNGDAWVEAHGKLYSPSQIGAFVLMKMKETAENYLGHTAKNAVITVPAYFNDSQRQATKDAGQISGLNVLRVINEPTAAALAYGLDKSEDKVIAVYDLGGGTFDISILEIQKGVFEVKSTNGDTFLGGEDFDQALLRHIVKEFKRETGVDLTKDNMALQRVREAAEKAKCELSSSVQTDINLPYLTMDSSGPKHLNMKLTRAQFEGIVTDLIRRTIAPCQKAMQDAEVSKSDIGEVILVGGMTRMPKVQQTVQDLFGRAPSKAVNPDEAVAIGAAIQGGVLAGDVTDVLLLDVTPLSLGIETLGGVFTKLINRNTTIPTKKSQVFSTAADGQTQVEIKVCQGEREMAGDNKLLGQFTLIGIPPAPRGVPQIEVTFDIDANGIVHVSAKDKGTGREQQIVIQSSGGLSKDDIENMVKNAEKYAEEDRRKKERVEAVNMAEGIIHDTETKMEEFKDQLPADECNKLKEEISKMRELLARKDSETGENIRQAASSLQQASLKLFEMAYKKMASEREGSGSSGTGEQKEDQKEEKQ
Source text: (§1) We conducted SPR experiments to characterize and quantify the direct binding interactions between Nef and SMR peptides (the analytes) and the target proteins, Vimentin and Mortalin (the immobilized ligands). We did so by injecting the analytes at various concentrations over the chip surface with the immobilized ligands.
(§2) Recombinant Human Vimentin Protein, CF (catalog # 2105-VI-100), Recombinant Human GRP75/HSPA9B/Mortalin His Protein (catalog # NBC1-18380), and Recombinant Human HSPA8/HSC71/Hsc70 His Protein (Catalog # NBPI-30278) were purchased from Novus Biologicals, LLC/R&D Systems, Centennial, CO, USA. These proteins were used for SPR.
(§3) SPR experiments were conducted using a Biacore T200 instrument (Cytiva, Marlborough, MA, USA). CM5 sensor chips (Cytiva) were used to immobilize proteins and run subsequent binding assays at 25 °C. To investigate the direct binding of Nef and SMR peptides to Vimentin and Mortalin and SMR competition studies, both proteins were immobilized as ligands on the active flow cells (FCs) using standard amine coupling chemistry. One reference FC was prepared using the same surface chemistry, and no proteins were immobilized onto this reference FC. Vimentin was immobilized to a level of ~2500 RU to 7200 RU in the presence of 4 mM of HCl and Mortalin to a level of ~11,900 RU to 13,200 RU in the presence of 10 mM of sodium acetate buffer at pH 4.5. Analytes were then injected (Nef, SMR peptides, Mortalin peptides, and mixtures of […]). One 20 s pulse of 1:500 H3PO4 (H3PO4:ddH2O) was injected for surface regeneration. To investigate the direct binding of Mortalin peptides to Nef, Nef was immobilized as a ligand to ~450 RU using thiol coupling chemistry. A reference FC was created using a method similar to the one above. Mortalin peptides were then injected as analytes. One 20 s pulse of 1 M NaCl was injected for surface regeneration. HBS-P (10 mM Hepes, pH 7.4; 150 mM NaCl; 0.05% surfactant P20) was used as the immobilization running buffer during the immobilization of all ligands. HBS-P was also used to dilute analytes and as a running buffer during all analyte–ligand binding assays. SPR data used for analysis was both blank (signals due to HBS-P only) and reference-subtracted (signals corresponding to reference FCs). Sensorgrams recorded for kinetics analyses were fitted to a 1:1 binding model using the Biacore T200 evaluation software version 3.2.1. GraphPad Prism version 10.4.0 was used to plot all graphs.

[2] = target: T2, Recombinant Human Vimentin Protein (Homo sapiens, UniProt P08670); test: biochemical; type: binding; conditions: SPR, 25 °C, HBS-P pH 7.4
T2 construct: purchased Novus Biologicals, LLC/R&D Systems 2105-VI-100
T2 sequence (P08670 whole entry): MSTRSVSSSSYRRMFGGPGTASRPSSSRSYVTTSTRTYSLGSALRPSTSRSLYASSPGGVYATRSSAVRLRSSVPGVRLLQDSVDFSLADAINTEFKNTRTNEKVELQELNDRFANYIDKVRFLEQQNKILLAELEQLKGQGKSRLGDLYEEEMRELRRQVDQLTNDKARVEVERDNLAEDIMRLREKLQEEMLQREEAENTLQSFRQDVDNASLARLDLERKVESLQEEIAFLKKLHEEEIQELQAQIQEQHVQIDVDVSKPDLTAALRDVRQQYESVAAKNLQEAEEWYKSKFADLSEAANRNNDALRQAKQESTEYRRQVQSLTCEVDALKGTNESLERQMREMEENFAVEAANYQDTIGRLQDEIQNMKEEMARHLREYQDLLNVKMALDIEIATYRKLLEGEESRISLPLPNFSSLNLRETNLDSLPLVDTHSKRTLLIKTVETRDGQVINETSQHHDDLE
Source text: as §1, §2, §3

[3] = system: Mortalin (Grp-75); test: Co-immunoprecipitation / Western blot, Mortalin; type: binding, human; conditions: MDA-MB-231, MCF-7, BT474 lysates; anti-FLAG M2 resin, 4 °C overnight
Experimental: MDA-MB-231, MCF-7, and BT474 BC cells were grown in RPMI 1640 medium containing 10% FBS at 37 °C in a T-75 tissue culture flask and collected via centrifugation at 1000× g for 20 min at 4 °C. The cell pellet was resuspended in 1 mL of 1X PBS and transferred to a 1.5 mL Eppendorf tube. Following microcentrifugation at 1000× g for 1 min, the pellet was resuspended in 1 mL of α-FLAG Lysis buffer through gentle pipetting (50 mM Tris HCl, pH 7.4; 150 mM sodium chloride [NaCl]; 1 mM EDTA; and 1% Triton X-100, with 1 mM phenylmethyl sulfonyl fluoride [PMSF] and 10 µL/mL Protease Inhibitor Cocktail with mammalian cell and tissue extracts [PIC; Sigma-Aldrich] added immediately before use). The suspension was differentially microcentrifuged at 2000× g for 5 min and at 13,000× g for 10 min to pellet the cell debris and DNA, respectively, and the supernatant (hereafter referred to as the Lysate) was collected. In total, 1 milligram of Lysate protein and 1 milligram of the SMRwt or SMRmut peptide were added to 20 µL of Anti-FLAG® M2 Affinity Gel (resin; Sigma). […]
Cell proteins were analyzed using Western blot analysis, as described previously. […] Protein bands were detected using Western blotting Luminol Reagent (Santa Cruz Biotechnology, Inc., Santa Cruz, CA, USA). […]

[4] = system: Vimentin; test: SPR competition: SMRwt binding to immobilized Vimentin with Mortalin peptides; set-up: species or system Human; conditions: 20 µM SMRwt + 20 µM Mortalin peptide, 25 °C, HBS-P pH 7.4
Experimental: Both Vimentin and Mortalin were immobilized as ligands. We used 20 µM of SMRwt alone and 20 µM of Mortalin peptides alone, and their mixtures were used as analytes.
Figure 9 Competitive binding of SMR and Mortalin peptides to Vimentin and Mortalin proteins. Binding of SMRwt to immobilized Vimentin in the presence and absence of (A) Mortalin peptide #56, (B) Mortalin peptide #61, and (C) Mortalin peptide #62. Binding of SMRwt to immobilized Mortalin in the presence and absence of (D) Mortalin peptide #56, (E) Mortalin peptide #61, and (F) Mortalin peptide #62. SMRwt alone, as well as a mixture of His-tagged Mortalin peptides #56, #61, and #62 were injected as analytes to flow over the immobilized ligand surfaces. […] Vimentin and Mortalin proteins were immobilized as ligands on a CM5 sensor chip using standard amine coupling chemistry.
SPR experiments were conducted using a Biacore T200 instrument (Cytiva, Marlborough, MA, USA). CM5 sensor chips (Cytiva) were used to immobilize proteins and run subsequent binding assays at 25 °C. To investigate the direct binding of Nef and SMR peptides to Vimentin and Mortalin and SMR competition studies, both proteins were immobilized as ligands on the active flow cells (FCs) using standard amine coupling chemistry. […] Sensorgrams recorded for kinetics analyses were fitted to a 1:1 binding model using the Biacore T200 evaluation software version 3.2.1. […]

For “^66Ala-Gly-Phe-Pro-Val^70 [SMRmut, 5-mer negative control, Val66 changed to Ala]”, the “binding to Mortalin, in words” value [1] was “did not produce a meaningful positive binding response to Vimentin and Mortalin; also recorded: does not bind to the Mortalin protein”, the “binding response to Vimentin, in words” value [2] was “did not produce a meaningful positive binding response to Vimentin and Mortalin” and the “co-immunoprecipitation with Mortalin, in words” value [3] was “not SMRmut, co-immunoprecipitated with Mortalin”.
For “DQLPADECNKLKEEISKMRE [#61, Mortalin scanning peptide 61]”, the “inhibition of SMRwt–Vimentin binding, in words” value ([4]; listed as Mortalin #61) was “effectively compete with SMRwt to block its interaction with the Mortalin or Vimentin protein” and the “inhibition of SMRwt–Vimentin binding, in words” value ([4]; listed as Mortalin peptide #61) was “inhibited SMRwt binding to both Mortalin and Vimentin; also recorded: completely blocks the 20 µM SMRwt from binding to both Vimentin and Mortalin; also recorded: completely inhibited complex formation between SMRwt and Vimentin”.
